In ChEMBL document CHEMBL1124620, “New 1,4-dihydropyridine derivatives combining calcium antagonism and alpha-adrenolytic properties” (J Med Chem, 1989):
pIC50: −log10 of the molar value.

How the values were obtained:
[1] = species on record: Rattus norvegicus; experiment: Calcium antagonistic activity was evaluated by in vitro inhibition of [3H]nitrendipine binding on rat cerebral cortex; assay type: functional
[2] = species on record: Sus scrofa; experiment: Calcium antagonistic activity was evaluated from the inhibition of CaCl2-induced contraction of depolarized pig coronary artery; assay type: functional; conditions: Sus scrofa, Coronary artery
[3] = target: T1, Adrenergic receptor alpha-1 (Rattus norvegicus, UniProt P15823+P23944+P43140); experiment: Alpha-1-adrenolytic activity was assessed in vitro from the ability to inhibit norepinephrine-induced contraction of rat aorta preparation
T1 sequence (P15823 whole entry): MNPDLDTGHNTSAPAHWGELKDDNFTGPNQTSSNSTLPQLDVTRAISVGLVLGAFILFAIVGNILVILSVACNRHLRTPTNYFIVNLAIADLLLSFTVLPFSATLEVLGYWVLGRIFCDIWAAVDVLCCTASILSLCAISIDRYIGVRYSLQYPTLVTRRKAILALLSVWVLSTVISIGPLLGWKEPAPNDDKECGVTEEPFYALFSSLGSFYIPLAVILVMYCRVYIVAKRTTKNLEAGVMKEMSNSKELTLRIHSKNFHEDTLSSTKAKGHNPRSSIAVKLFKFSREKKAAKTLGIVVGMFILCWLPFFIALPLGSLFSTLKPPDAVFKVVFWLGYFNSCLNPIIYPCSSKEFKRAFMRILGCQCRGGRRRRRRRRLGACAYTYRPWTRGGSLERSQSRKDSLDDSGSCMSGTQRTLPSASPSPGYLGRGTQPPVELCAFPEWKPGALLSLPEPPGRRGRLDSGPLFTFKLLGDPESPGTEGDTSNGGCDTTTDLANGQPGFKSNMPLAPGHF
T1 sequence (P23944 whole entry): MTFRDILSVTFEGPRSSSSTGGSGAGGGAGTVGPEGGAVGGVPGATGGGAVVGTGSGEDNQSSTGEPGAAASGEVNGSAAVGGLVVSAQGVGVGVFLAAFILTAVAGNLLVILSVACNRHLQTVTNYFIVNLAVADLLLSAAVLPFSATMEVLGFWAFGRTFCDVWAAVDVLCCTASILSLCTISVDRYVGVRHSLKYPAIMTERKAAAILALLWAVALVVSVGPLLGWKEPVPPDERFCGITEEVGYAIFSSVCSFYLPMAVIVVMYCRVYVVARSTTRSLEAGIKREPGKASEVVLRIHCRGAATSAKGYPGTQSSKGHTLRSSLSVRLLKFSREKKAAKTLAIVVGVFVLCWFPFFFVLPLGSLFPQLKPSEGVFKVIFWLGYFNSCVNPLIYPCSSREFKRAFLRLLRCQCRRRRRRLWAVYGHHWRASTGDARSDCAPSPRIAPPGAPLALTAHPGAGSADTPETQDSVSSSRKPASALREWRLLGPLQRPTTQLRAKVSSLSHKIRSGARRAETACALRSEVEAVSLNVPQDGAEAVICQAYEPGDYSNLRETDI
T1 sequence (P43140 whole entry): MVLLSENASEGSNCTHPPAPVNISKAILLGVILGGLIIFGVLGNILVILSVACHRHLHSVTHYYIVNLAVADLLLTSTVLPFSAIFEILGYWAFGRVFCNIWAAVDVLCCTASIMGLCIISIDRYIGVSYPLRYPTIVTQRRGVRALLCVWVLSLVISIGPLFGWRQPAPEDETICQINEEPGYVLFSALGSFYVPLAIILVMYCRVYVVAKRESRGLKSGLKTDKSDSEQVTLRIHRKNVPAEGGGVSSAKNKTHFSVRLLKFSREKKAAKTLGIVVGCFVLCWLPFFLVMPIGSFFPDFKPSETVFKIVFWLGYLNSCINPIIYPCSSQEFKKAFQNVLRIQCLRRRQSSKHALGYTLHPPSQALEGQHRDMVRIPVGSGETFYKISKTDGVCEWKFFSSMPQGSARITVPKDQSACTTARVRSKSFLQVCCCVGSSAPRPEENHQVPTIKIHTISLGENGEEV

[4] = target: T2, Adrenergic receptor alpha-2 (Rattus norvegicus, UniProt P22086+P19328+P22909); experiment: Alpha-2-adrenolytic activity was assessed from the ability to inhibit [3H]yohimbine binding to rat cerebral cortex preparation; assay type: tissue-based
T2 sequence (P22086 whole entry): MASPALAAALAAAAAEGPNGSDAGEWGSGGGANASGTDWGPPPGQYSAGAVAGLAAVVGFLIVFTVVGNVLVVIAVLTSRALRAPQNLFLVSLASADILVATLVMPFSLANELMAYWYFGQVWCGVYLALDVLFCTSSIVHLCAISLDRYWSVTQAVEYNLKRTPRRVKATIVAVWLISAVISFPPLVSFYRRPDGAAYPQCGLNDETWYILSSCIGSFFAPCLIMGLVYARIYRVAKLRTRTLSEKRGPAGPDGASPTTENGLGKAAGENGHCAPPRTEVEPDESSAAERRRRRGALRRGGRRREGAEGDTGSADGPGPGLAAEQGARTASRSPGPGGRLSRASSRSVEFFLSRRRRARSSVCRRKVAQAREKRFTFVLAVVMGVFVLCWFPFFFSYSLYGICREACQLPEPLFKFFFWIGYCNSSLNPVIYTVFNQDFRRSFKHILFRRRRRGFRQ
T2 sequence (P19328 whole entry): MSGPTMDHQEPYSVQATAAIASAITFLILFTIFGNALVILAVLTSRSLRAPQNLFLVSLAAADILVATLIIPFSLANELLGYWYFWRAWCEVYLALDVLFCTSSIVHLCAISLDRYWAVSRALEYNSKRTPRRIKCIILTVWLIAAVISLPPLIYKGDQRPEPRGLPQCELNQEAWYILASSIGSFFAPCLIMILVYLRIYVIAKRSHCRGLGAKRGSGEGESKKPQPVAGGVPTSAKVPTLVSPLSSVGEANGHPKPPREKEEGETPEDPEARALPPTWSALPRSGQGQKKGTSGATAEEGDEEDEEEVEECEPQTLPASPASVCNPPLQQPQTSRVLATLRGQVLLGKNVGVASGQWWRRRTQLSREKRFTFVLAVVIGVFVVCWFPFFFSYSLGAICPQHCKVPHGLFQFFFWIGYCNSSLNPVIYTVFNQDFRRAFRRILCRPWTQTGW
T2 sequence (P22909 whole entry): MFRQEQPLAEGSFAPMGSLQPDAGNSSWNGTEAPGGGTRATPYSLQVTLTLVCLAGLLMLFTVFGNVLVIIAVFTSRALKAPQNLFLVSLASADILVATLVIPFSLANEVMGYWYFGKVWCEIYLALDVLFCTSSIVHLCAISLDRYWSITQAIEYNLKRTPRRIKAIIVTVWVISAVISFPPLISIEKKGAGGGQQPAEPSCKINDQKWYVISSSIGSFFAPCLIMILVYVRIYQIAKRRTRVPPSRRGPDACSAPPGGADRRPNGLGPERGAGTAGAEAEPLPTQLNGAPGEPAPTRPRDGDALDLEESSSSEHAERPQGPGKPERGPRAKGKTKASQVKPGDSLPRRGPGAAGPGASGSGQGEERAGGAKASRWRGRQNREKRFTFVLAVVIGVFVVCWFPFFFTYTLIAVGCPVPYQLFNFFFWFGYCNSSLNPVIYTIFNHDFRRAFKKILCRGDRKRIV

[5] = target: T1, Adrenergic receptor alpha-1; experiment: Alpha-1-adrenolytic activity was assessed from the ability to inhibit [3H]prazosin binding to rat cerebral cortex preparation; assay type: tissue-based

Row | Structure (SMILES) | pIC50 [1] | pIC50 [2] | IC50 [3] | IC50 [4] [nM] | IC50 [5] [nM]
1 | COC(=O)C1=C(C)NC(C)=C(C(=O)OCCN(C)C[C@H]2COc3ccccc3O2)[C@@H]1c1cccc([N+](=O)[O-])c1.Cl (racemic) | – | – | 0.00003 M | 210 | 1900
2 | COC(=O)C1=C(C)NC(C)=C(C(=O)OCCN(C)Cc2ccccc2)C1c1cccc([N+](=O)[O-])c1 (centres undefined) [NICARDIPINE] | 10.59 | 9.52 | > 0.00001 M | 1400 | 3600
3 | COc1cc2nc(N3CCN(C(=O)c4ccco4)CC3)nc(N)c2cc1OC [PRAZOSIN] | 5.52 | – | – | – | –

The next lines start with the values.

Row | pIC50 [1] | pIC50 [2] | IC50 [3] | IC50 [4] [nM] | IC50 [5] [nM] | Structure (SMILES)
4 | 9.00 | 8.60 | >> 0.00001 M | 19000 | 2000 | CO/C(O)=C1\C(C)=NC(C)=C(C(=O)OCCN(C)C[C@@H]2COc3ccccc3O2)[C@H]1c1cccc([N+](=O)[O-])c1.Cl
5 | 10.22 | 8.40 | >> 0.00003 M | 830 | 3500 | CC1=NC(C)=C(C(=O)OCCN(C)CC2COc3ccccc3O2)C(c2cccc([N+](=O)[O-])c2)/C1=C(\O)OC(C)C.Cl (centres undefined)
